Results: patent US11186612B2, “Substance P analog having progenitor cell or stem cell recruiting activity and method for progenitor cell or stem cell recruiting using the same” (AJOU UNIVERSITY INDUSTRY-ACADEMIC COOPERATION FOUNDATION, priority 2019, dated 2021)
Where no end group is shown, it is not given here.

Assays:
[1] = tested on: human-derived MSCs (hMSCs); test: Stem cell migration evaluation ex vivo (24-well Transwell plate, PKH 26-labeled hMSCs); format: cell-based; details: 1 μg/mL in DMEM + 1% FBS in bottom well, FIG. 2; for stem cell migration compared with the control: hMSCs in upper chamber
Experimental: In the present invention, to compare the stem cell recruiting activities of SP and the SP1 of the present invention, stem cell migration was evaluated in an ex vivo environment.
First, human-derived MSCs (hMSCs) were labeled with a PKH 26 dye (Sigma, USA), and 5×10^4 cells were put into an upper chamber (8.0 μm pore size) of a 24-well Transwell plate (SPL, Korea). After the hMSCs were cultured in the upper chamber for 48 hours using a serum-free DMEM (Gibco, USA), a medium prepared under the following conditions in Table 2 was added into a bottom well, and then the medium was replaced with a fresh one every third day, followed by observing hMSCs in the bottom well using a fluorescence microscope.

[2] = tested on: human-derived MSCs (hMSCs); test: In vivo migration of ICG-labeled hMSCs to injected Cx-HA hydrogel containing SP or SP1 (NIR fluorescence imaging); design: species or system nude mouse; details: for fluorescence (recruited hMSC) at injected site: NIR-labeled Cx-HA hydrogel with 1 μg/mL peptide injected in one side of nude mouse, hMSCs via caudal vein, control Cx-HA no fluorescence
Experimental: Each of the NIR-HA-TET and NIR-HA-TCO, which were prepared in Example 3-1, was dissolved in 2% physiological saline to have a volume of 20 mg/mL, thereby preparing an aqueous solution, and 1 μg/mL of SP having an amino acid sequence of SEQ ID NO: 1 or SP1 having an amino acid sequence of SEQ ID NO: 2 was added to each solution. After 1-hour stirring, a hyaluronic acid hydrogel solution containing a stem cell recruiting factor was obtained by mixing the mixed solution prepared by stirring each of the solutions using a dual syringe.
NIR-labeled Cx-HA was injected into one side of a nude mouse, and NIR-labeled Cx-HA containing a stem cell recruiting factor was injected into the other side thereof, as shown in Table 3.
To visually confirm the extent of stem cell recruiting of SP1 in the present invention, hMCSs were labeled with indocyanine green and injected into a mouse caudal vein.
First, an indocyanine green (ICG) solution was prepared by dissolving 2 mg of ICG in 200 μL of DMSO, and mixing the resulting solution with 800 μL of a culture medium (DMEM (low-glucose)+10% FBS+1% penicillin-streptomycin). 10 μL of a 10 mg/mL protamine solution, 600 μL of the ICG solution and 600 μL of MEM-α were mixed, and gently stirred for 5 minutes. Afterward, the medium was removed from the flask in which hMSCs were cultured, replaced with 10 mL of a serum-free DMEM (low-glucose) medium, and then incubated for 1 hour at 37° C. under a 5% CO2 condition by adding a protamine/ICG solution.
Subsequently, the medium was removed, and the cells were washed with 10 mL PBS and treated with trypsin, thereby obtaining hMSCs. The hMSCs were prepared to be 1×10^6 cells/100 μL, and […] was injected into the caudal veins of nude mice using a […] syringe (FIG. 3). NIR fluorescence imaging was performed at a predetermined time using FOBI (NeoScience, Suwon, Korea) at 730 nm under conditions of an exposure of 2000 ms and a gain of 5.
To confirm the extent of promotion of in vivo hMSC migration by SP1 in the present invention, the hMSC-injected nude mice prepared in Example 4 were subjected to NIR fluorescence imaging using FOBI (NeoScience, Suwon, Korea) at 730 nm under conditions of an exposure of 2000 ms and a gain of 5.

RISPQQRDALA (SP1)
number of moved stem cells compared with the SP-treated group [1]: high | stem cell migration compared with the control [1]: stem cells moved | stem cell recruiting activity maintenance time ([2]; Cx-HA hydrogel 1 μg/mL peptide, nude mouse, FIG. 6, compared with conventional SP): longer | stem cell recruiting activity, comparing FIGS. 4 (SP) and 5 (SP1) ([2]; Cx-HA hydrogel 1 μg/mL peptide, nude mouse, NIR imaging over time, compared with SP): higher stem cell recruiting activity | amount of stem cells moved to the injected site, quantified (FIG. 6): stem cell recruiting activity ([2]; Cx-HA hydrogel 1 μg/mL peptide, nude mouse, compared with conventional SP): higher stem cell recruiting activity | fluorescence (recruited hMSC) at injected site [2]: fluorescence was observed

RPKPQQFFGLM (RPKPQQFFGLM-NH2) [SP, neuropeptide of 11 amino acids (Arg-Pro-Lys-Pro-Gln-Gln-Phe-Phe-Gly-Leu-Met-NH2), endogenous NKR1 ligand, reference compound]
stem cell migration compared with the control [1]: stem cells moved | fluorescence (recruited hMSC) at injected site [2]: fluorescence was observed
